Here are results for one molecule from patent US11033577B2, “Polymer conjugate of hexa-coordinated platinum complex” (priority 2015, dated 2021).

This series is described as follows: Body weight of mice in Antitumor Test 2. The format is in vivo. The following applies: 18 mg/kg once, caudal vein. As to the method: Human stomach cancer 4-1ST was collected subcutaneously from a nude mouse and was cut into blocks each measuring about 3 mm on each side. The tumor blocks thus obtained were transplanted subcutaneously on the dorsal side of nude mice using a trocar. On the 17th day after transplantation, where the average tumor volume had reached about 100 to 200 mm^3, various drugs were administered through the caudal vein. The use and dose (in terms of drug) of the various administered drugs are as follows. In regard to the Example 11 compound, the compound was dissolved in a 5% glucose injectable solution, and the solution was administered once at a dose of 15 mg/kg or 7.5 mg/kg. In regard to the Example 12 compound, the compound was dissolved in a 5% glucose injectable solution, and the solution was administered once at a dose of 30 mg/kg or 15 mg/kg. As a control drug, l-OHP was administered once at a dose of 18 mg/kg, and cisplatin was administered once at a dose of 10 mg/kg. Regarding the amounts of administration of l-OHP and cisplatin and the high amounts of administration of the various Example compounds, the maximum tolerable doses (MTD doses) were employed for all of the compounds. After the administration, the major axis (L) and the minor axis (W) of the tumor were measured over time using calipers, and the tumor volume (L×W×W×0.5) was calculated. The test was performed by employing four animals per group for all of a non-administered group as well as various drug-administered groups. During the period from the initiation of administration to the 21st day after administration, the relative tumor volume (T/C (%)) of each drug-administered group based on the relative tumor volume of a non-drug-administered group as 100 was calculated by the following formula as an index for the antitumor effect. T/C(%)=Relative tumor volume of administered group/relative tumor volume of non-administered group×100 Formula: […]
After the administration, the body weights of the mice were measured over time. During the period from the initiation of administration to the 21st day after administration, the changes in the relative body weight based on the body weight on the day of initiation of administration as 1 are presented in Table 5.

Regarding `O=C1[O][Pt]2([NH][C@@H]3CCCC[C@H]3[NH]2)[O]C1=O` [l-OHP, oxaliplatin], the “Relative body weight in numbers of days after administration” value is, setting by setting: (day 0) 1.00; (day 4) 0.78; (day 7) 0.83; (day 11) 0.93; (day 14) 1.03; (day 18) 1.09. The “Relative body weight in numbers of days after administration” value (day 21) is recorded as 1.05.
